Source: patent US11236068B2, “Fused ring compounds” (Genentech, Inc., priority 2018, dated 2022)

Tests used:
[1] = biological target: T1, K-Ras G12C (Homo sapiens (Human), UniProt P01116, G12C); test: K-Ras G12C, SOS1, Raf RBD HTRF assay for inhibition of GTP exchange; type: biochemical; conditions: 18 hours incubation with K-Ras G12C at room temperature, SOS1-mediated GTP exchange
Experimental: K-Ras G12C, SOS1, Raf RBD Homogeneous Time Resolved Fluorescence (HTRF) Assay for Inhibition of GTP Exchange
After 18 hours at room temperature, the SOS1 GTP exchange factor (1.67 nM during exchange, 1.25 nM final) was added to initiate nucleotide exchange to GTP (200 μM during exchange, 150 µM final). The level of GTP exchange was assessed by addition of a Ras binding domain derived from C-Raf and the HTRF detection antibodies Tb-anti-FLAG and D2-anti-his (Cis-Bio) at 50 nM, 1 nM and 12.5 nM, respectively. After 2 hours, the ratio of 665 nm to 615 nm emission with 320 nm excitation was measured on an Envision plate reader (Perkin Elmer).
The final reaction volume was 20l in a ProxiPlate-384F Plus (Perkin Elmer), in buffer containing 20 mM HEPES, 150 mM NaCl, 1 mM MgCl2, 0.1% BSA, 0.03% Tween-20 and 1 mM DTT. […] HTRF data are presented below in Table 3.
Target sequence in this assay (P01116 other isoform, or with tags, fused parts or gaps G12C): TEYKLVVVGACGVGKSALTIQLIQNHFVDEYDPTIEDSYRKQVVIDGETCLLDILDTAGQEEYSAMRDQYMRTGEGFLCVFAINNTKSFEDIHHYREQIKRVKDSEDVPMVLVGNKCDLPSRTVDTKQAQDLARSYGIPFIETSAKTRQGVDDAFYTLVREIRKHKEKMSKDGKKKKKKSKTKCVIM

[2] = biological target: T1, K-Ras G12C; test: Western blot assay for in cell alkylation of K-Ras G12C (HCC1171 cells); type: cell-based; conditions: 18 hours at 37° C., 7 point dose response
Target sequence in this assay (P01116 other isoform, or with tags, fused parts or gaps G12C): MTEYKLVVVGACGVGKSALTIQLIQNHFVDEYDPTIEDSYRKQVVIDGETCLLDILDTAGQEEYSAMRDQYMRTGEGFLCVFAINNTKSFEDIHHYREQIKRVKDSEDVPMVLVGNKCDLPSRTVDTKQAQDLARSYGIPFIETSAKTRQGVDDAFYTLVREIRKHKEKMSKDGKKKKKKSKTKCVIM

IC50 [1] [µM] | EC50 [2] [µM] | SMILES
0.54 | 7.8 | C=CC(=O)N1CCN(c2ncnc3cc(-c4nc(N)ccc4C(F)(F)F)c(S(C)(=O)=O)cc23)CC1 [Example 28, 1-[4-[7-[6-amino-3-(trifluoromethyl)-2-pyridyl]-6-methylsulfonyl-quinazolin-4-yl]piperazin-1-yl]prop-2-en-1-one]
0.032 | 0.14 | C=CC(=O)N1CCN(c2ncnc3cc(-c4nc(N)cc5cccc(F)c45)c(Cl)cc23)CC1 [Example 48, 1-[4-[7-(3-amino-8-fluoroisoquinoline-1-yl)-6-chloroquinazolin-4-yl]piperazin-1-yl]prop-2-en-1-one]
